# Key:
# [1] = UV-Vis host-guest titration, association constant; assay type: binding; settings: host (9) in dichloromethane; triplicate, TBA salt and acid; Bindfit
# Procedure: (§1) Path length of the quartz cell was 1 cm. For UV-vis titrations, a stock solution of host was prepared (2.2×10^−3 M) in dichloromethane (DCM) and serially diluted to the required concentrations. Working solutions of tetrabutylammonium (TBA) anion salts or guest molecules were prepared in the same manner Host−guest titrations used solutions of guest prepared in the working concentration of host solution, according to the procedure of Thordarson, 2011.
# (§2) UV-vis spectroscopic host−guest titrations were performed in accordance with the methodologies of Thordarson, 2011. Solutions of host in dichloromethane were prepared. Solutions of guest were then prepared in the host solution. Aliquots of guest in host solution were added to host solution and sequentially analysed until a known molar equivalent of guest was added. The amount of guest added per aliquot was ascertained by a preliminary screening experiment; strong association constants required smaller molar equivalents so more information could be collected. By way of example, host (9) responded to 0.1 molar equivalent of PFBA strongly, so an addition of 1 molar equivalent of PFBA would result in a loss of information. The inverse is true for weaker binding interactions. […]
# (§3) A host solution of host (9) in dichloromethane was monitored using UV-Vis analysis as 0.5-10 equivalents of each PFAS was added. […]
# [2] = UV-Vis host-guest titration, association constant; assay type: binding; settings: host (9) in dichloromethane; triplicate, TBA salt and acid; Bindfit; remark: listed apart in the source
# Procedure: as §1, §2, §3
smiles,measurement,setting,value
"O=C(Nc1ccccc1-c1c2nc(c(-c3ccccc3NC(=O)C(F)(F)C(F)(F)C(F)(F)C(F)(F)C(F)(F)C(F)(F)C(F)(F)F)c3ccc([nH]3)c(-c3ccccc3NC(=O)C(F)(F)C(F)(F)C(F)(F)C(F)(F)C(F)(F)C(F)(F)C(F)(F)F)c3nc(c(-c4ccccc4NC(=O)C(F)(F)C(F)(F)C(F)(F)C(F)(F)C(F)(F)C(F)(F)C(F)(F)F)c4ccc1[nH]4)C=C3)C=C2)C(F)(F)C(F)(F)C(F)(F)C(F)(F)C(F)(F)C(F)(F)C(F)(F)F [host (9), α,α,α,α-5,10,15,20-tetrakis(2-(pentadecafluorooctanoylamino)phenyl)porphyrin]",K value (averaged association constant Ka),[1],6585
same,K value (averaged association constant Ka),[2],58920
